Assay results from patent publication US8198084B2, “Serum-free mammalian cell culture medium, and uses thereof” (Life Technologies Corporation, priority 1996, dated 2012).

Legend:
rβ-gal CHO cells [1] = experiment: Growth (cell density) of rβ-gal CHO cells in suspension culture; type: cell-based, Chinese hamster; conditions: for cell growth and viability versus CD CHO control: Example 14, 25 μg/mL in CD CHO medium, FIG. 13
Experimental: To establish a recombinant β-galactosidase (rβ-Gal) CHO cell line, CHO cells deficient in dihydrofolate reductase (DHFR^−) were obtained from ATCC(CRL-9096, Rockville, Md.) and transfected with two plasmids: pSV2dhfr (ATCC 37146), containing a gene for methotrexate (MTX) resistance, and pCMVβgal, which contains the lacZ cDNA. The transfection was conducted using LipofectAMINE™ Reagent, and selection was accomplished with 1.2 μM methotrexate (Sigma Chemical Co., St Louis, Mo.). Stock cultures were maintained in CHO-S-SFM II or CHO III Prototype supplemented with 0.3 μM MTX.
Unless indicated otherwise below, CHO cell culture conditions were as follows for the following Examples. 25-35 mL of CHO cells were cultured in 125 mL shake flasks in humidified air containing 5-10% carbon dioxide. The shake flasks were shaken on an orbital shaking platform at 125-135 rpm. Temperature was maintained at 37° C. Cells were subcultured every three to four days to a density of 2−3×10^5 cells/mL.

rβ-gal CHO cells [2] = experiment: rβ-Gal assay (ONPG) in lysates of rβ-gal CHO cells; type: cell-based, Chinese hamster; conditions: for level of rβ-gal expression versus CD CHO control: Example 14, 25 μg/mL in CD CHO medium, FIG. 14
Experimental: rβ-Galactosidase (rβ-gal or rβeta-Gal) was measured in cell lysates using a modification of the method described by Hall et al., J. Mol. Appl. Gen. 2:101-109 (1983) and Miller, Experiments in Molecular Genetics, Cold Spring Harbor Laboratory (1972). Briefly, a 2.0 ml sample of cell suspension was collected from each sample and subjected to two freeze-thaw cycles, centrifuged at 100× g for 4 minutes, and the supernatant was saved for rβ-Galactosidase quantitation. 100 μl of each supernatant sample was added to 1.0 ml Z buffer (0.06 M Na2HPO4, 0.04M NaH2PO4, 0.01M KCl, 0.01M MgSO4-7H2O, 0.05M β-mercaptoethanol, pH 7.0), followed by 200 μl of o-nitrophenyl-p-D-galactoside (ONPG, 4.0 mg/ml in dH20) and incubated at 37° C. for 120 minutes. The reaction was halted by addition of 500 μl stop buffer (1M Na2CO3) and absorbance at 420 nm was read against a blank of the appropriate medium. Activity was calculated using the following formulae:
[formula] Units rβ-galactosidase/# of cells=Activity/cell 2.

[3] = system: 293 human embryonic kidney cells; experiment: Suspension culture of 293 cells: cell density and viability; type: cell-based; conditions: lower-protein media, transferrin replaced by iron chelate; FIG. 2
Experimental: Adenovirus type 5-transformed 293 human embryonic kidney epithelial cells were obtained from ATCC(CRL 1573), and were cultured as described in Example 4 by incubation at 37° C. in a humidified atmosphere consisting of 8% CO2/92% air.
Cultures of 293 cells in serum-supplemented media were weaned from serum by passage 2-3 times in OptiMEM medium (Life Technologies, Inc.; Rockville, Md.) supplemented with 2% normal horse serum in 165 cm^2 culture flasks. After the second or third passage, when cells reached 50-75% confluence, they were dislodged from the growth surfaces by gently rapping the flasks several times; trypsin or other proteolytic agents were not used, since such agents often cause irreversible damage to cells cultivated in low-serum or serum-free media. Cells were resuspended in the present culture media and triturated until aggregates dispersed into a single cell suspension, and cell concentration and viability was determined by trypan blue exclusion counting on a hemacytometer according to routine procedures.
Cells were then seeded into the present culture medium in Erlenmeyer flasks at a density of about 2.5−3.0×10^5 cells/ml. […] Cell densities and viabilities were determined at least every other day, and cells were subcultured when the density approached about 7.5−10.0×10^5 cells/ml by diluting cultures with fresh culture medium to a density of about 2.5−3.0×10^5 cells/ml. […]

Compound | support of 293 cell growth compared with complete media [3] | cell growth and viability versus CD CHO control (rβ-gal CHO cells [1]) | level of rβ-gal expression versus CD CHO control (rβ-gal CHO cells [2]) | further results
CN(Cc1cnc2nc(N)nc(N)c2n1)c1ccc(C(=O)N[C@@H](CCC(=O)O)C(=O)O)cc1 [MTX, methotrexate, reference compound] | – | – | – | relation of concentration to cell density (rβ-gal CHO cells [1]; Example 9, CD CHO medium with increasing concentrations, FIG. 7A): inversely proportional; relation of concentration to rβ-galactosidase specific activity (rβ-gal CHO cells [2]; Example 9, CD CHO medium with increasing concentrations, FIG. 7B): proportional
FeCl3-sodium citrate | performed equivalently to complete media | – | – | –
FeSO4-EDTA | performed equivalently to complete media | – | – | –
dextran sulfate [dextran sulfate (m.w. 5,000)] | – | increased cell growth and viability at days 5, 7, and 9 | an increase in the level of rβ-gal expression at days 5, 7, and 9 | –
dextran sulfate [dextran sulfate (m.w. 500,000)] | – | increased cell growth and viability at days 5 and 7, but not at day 9 | did not display enhanced expression | –
